{"source": "patent US10472599B2", "about": "“Microfluidic cell culture of patient-derived tumor cell spheroids” (Dana-Farber Cancer Institute, Inc., priority 2015, dated 2019)", "type_in_all_cases": "cell-based, human", "key": {"[1]": {"system": "spheroids derived from multiple different melanoma resection specimens", "test": "Light microscopy of immune response in patient-derived melanoma spheroids in 3D microfluidic culture", "details": "pembrolizumab 250 μg/mL", "procedure": "On Day 1, tumor was collected in an operating room and placed in a sterile 15 mL conical tube bathed with culture media (10% FBS with DMEM or RPMI) and stored on ice. The media was aspirated in a sterile hood and the tumor specimen gently placed in a normal 10 cm culture dish on ice. Using a scalpel, the tumor was minced into smaller pieces. A sample can optionally be exposed to strong collagenase treatment to generate single cells that can be submitted directly for flow cytometry. To the 10 cm dish containing the minced tumor was added 10 mL of collagenase solution (10 mL media, 150 μL HEPES (15 mM final concentration), 100 μL collagenase (100 U/μL stock, 1 unit/μL final concentration)). The minced tumor and collagenase mixture was subsequently transferred to a 50 mL conical tube, and then transferred to a fresh low-attachment 10 cm dish. The low-attachment dish comprising the sample was incubated at 37° C. for 30-60 minutes while checking every 15-30 minutes, as the duration of time required varies from specimen to specimen. The intended outcome of this step is to generate multicellular spheroids via a limited collagenase digestion, so the sample should not be comprised entirely of single cells. After the […] incubation period, 10 mL of fresh media was added to the dish containing the tumor sample and the contents (˜20 mL) transferred to a 50 mL conical tube. […]"}, "[2]": {"system": "melanoma tumor spheroids", "test": "Flow cytometry immune profiling of cells extracted from the device post-treatment", "procedure": "For flow cytometry, RNA sequencing analysis, or T-cell receptor (TCR) sequencing the cells were removed using collagenase (150 μL per device) after media had been removed. […] The cells in collagenase were aspirated into a 15 mL conical tube containing 4.0 mL of sterile 1× PBS and spun down for 5 minutes at 1100 rpm. The PBS wash was gently aspirated and the pellet resuspended in 1.5 mL 10% FBS-DMEM for flow cytometry. In some instances, genomic DNA is prepared from flow-sorted T lymphocytes for TCR sequencing using the ImmunoSeq platform from Adaptive Biotechnologies to evaluate T-cell receptor clonality. Clonality can be assessed in spheroids relative to bulk tumor, and in response to immune checkpoint blockade to evaluate for increased TCR clonality (indicating expansion of tumor-reactive T cell clones). For RNA sequencing, the resuspension can be performed using 1.5 mL 10% FBS-DMEM, PBS, or a compatible lysis buffer.\nAdditionally, although it was demonstrable by flow cytometry of melanoma tumor spheroids at baseline that they consisted of up to 20% immune cells, including T cells, dendritic cells, monocytes (not shown), the value of extracting cells from the device and repeating flow cytometry post-treatment was realized. By repeating collagenase digestion within the device and washing cells in PBS, conditions have been developed that enable repeat immune profiling. […]"}, "[3]": {"system": "spheroids derived from multiple different melanoma resection specimens", "test": "Luminex cytokine profiling of conditioned media from melanoma spheroid culture", "procedure": "On Day 3, media was aspirated from the device and ˜200 μL media (1:1 mixture of 10% FBS-DMEM and EGM2 supplemented with growth factors per protocol) with or without treatment (e.g., anti-PD-1 monoclonal Ab) were added to each device. The devices were subsequently placed in humidified, sterile containers, and returned to 37° C. incubation.\nOn Day 6 (or 48-72 hours post-treatment), conditioned media was collected for cytokine analysis. Light microscopy was performed and images obtained to characterize and document spheroid dispersal and/or putative immune response, which is commonly characterized by non-pigmented cells surrounding the brown-pigmented melanoma spheroids. Media was collected from each device by aspiration using a 200 μL pipet, transferred to sterile 1.5 mL Eppendorf tubes, and frozen at −80° C. prior to submission to CMOP for multiplex cytokine/chemokine analysis. Also on Day 6, the cells present in the 3D culture device following treatment were characterized by multiple methods.\nAs the spheroids and co-cultured endothelial cells are bathed in media, the conditioned media was extracted from the device and luminex cytokine profiling was performed."}}, "data": [{"substance": "pembrolizumab", "values": [{"measurement": "immune response", "setting": "[1]; absence of anti-CD28 co-stimulation (FIG. 4A)", "value": "observed immune response"}, {"measurement": "immune response", "setting": "[1]; presence of anti-CD28 co-stimulation (FIG. 4B)", "value": "observed immune response"}, {"measurement": "markers of early CD8 T cell activation such as CD69", "setting": "[2]; post-treatment flow cytometry (FIG. 6A)", "value": "observed increase"}, {"measurement": "specific immune checkpoint receptors such as TIM3", "setting": "[2]; post-treatment flow cytometry (FIG. 6B)", "value": "increase"}, {"measurement": "certain cytokines (e.g., IP10) in conditioned media", "setting": "[3]; combination with anti-CD28 (FIG. 5)", "value": "induced"}, {"measurement": "cytokines in conditioned media", "setting": "[3]; following αPD1 exposure (FIG. 5)", "value": "pronounced up-regulation of multiple cytokines"}]}]}
